From ChEMBL document CHEMBL4507287, “Data for DCP probe MRL-650” (2021)

Assays:
[1] = molecular target: Mitogen-activated protein kinase kinase kinase 11 (Homo sapiens) (UniProt Q16584); conditions: Compound concentration 1000.0 nM
[2] = molecular target: Insulin receptor-related protein (Homo sapiens) (UniProt P14616); conditions: Compound concentration 1000.0 nM
[3] = molecular target: Serine/threonine-protein kinase PRP4 homolog (Homo sapiens) (UniProt Q13523); conditions: Compound concentration 1000.0 nM
Serine/threonine-protein kinase PRP4 homolog (Homo sapiens), sequence (Q13523 whole entry): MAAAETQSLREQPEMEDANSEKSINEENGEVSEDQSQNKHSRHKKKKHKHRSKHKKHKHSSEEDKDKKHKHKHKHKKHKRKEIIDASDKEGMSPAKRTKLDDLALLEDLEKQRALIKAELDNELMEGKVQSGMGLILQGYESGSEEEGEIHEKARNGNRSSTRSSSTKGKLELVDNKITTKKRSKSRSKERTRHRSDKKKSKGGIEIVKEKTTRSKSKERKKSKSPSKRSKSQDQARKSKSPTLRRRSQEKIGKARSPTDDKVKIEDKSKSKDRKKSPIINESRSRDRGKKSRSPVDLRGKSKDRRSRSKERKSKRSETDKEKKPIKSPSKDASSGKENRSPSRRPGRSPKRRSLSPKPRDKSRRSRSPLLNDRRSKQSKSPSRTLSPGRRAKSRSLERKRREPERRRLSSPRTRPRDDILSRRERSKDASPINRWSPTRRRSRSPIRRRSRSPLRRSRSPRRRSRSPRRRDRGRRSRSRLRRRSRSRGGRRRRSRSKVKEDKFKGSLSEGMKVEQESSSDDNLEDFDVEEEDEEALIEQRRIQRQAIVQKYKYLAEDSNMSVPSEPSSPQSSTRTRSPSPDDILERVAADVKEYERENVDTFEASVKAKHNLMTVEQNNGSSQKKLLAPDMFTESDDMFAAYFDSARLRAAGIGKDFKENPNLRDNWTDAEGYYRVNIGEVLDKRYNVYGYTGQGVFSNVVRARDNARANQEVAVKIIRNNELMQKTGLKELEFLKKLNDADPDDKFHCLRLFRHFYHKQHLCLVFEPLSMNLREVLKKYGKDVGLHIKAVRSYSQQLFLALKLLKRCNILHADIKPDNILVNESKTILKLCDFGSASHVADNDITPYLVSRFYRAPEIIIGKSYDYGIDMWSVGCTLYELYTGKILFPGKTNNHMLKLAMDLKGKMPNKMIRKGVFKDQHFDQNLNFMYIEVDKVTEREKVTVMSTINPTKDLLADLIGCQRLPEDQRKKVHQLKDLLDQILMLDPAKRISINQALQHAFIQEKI

[4] = tested on: Epidermal growth factor receptor (Homo sapiens), P00533 [G719C]; conditions: Compound concentration 1000.0 nM
[5] = molecular target: Cyclin-dependent kinase 14 (Homo sapiens) (UniProt O94921); conditions: Compound concentration 1000.0 nM
[6] = molecular target: Phosphorylase b kinase regulatory subunit alpha, liver isoform (Homo sapiens) (UniProt P46019); conditions: Compound concentration 1000.0 nM
[7] = molecular target: Serine/threonine-protein kinase 25 (Homo sapiens) (UniProt O00506); conditions: Compound concentration 1000.0 nM
[8] = molecular target: Ephrin type-A receptor 6 (Homo sapiens) (UniProt Q9UF33); conditions: Compound concentration 1000.0 nM
[9] = molecular target: Serine/threonine-protein kinase 17A (Homo sapiens) (UniProt Q9UEE5); conditions: Compound concentration 1000.0 nM
Serine/threonine-protein kinase 17A (Homo sapiens), sequence (Q9UEE5 whole entry): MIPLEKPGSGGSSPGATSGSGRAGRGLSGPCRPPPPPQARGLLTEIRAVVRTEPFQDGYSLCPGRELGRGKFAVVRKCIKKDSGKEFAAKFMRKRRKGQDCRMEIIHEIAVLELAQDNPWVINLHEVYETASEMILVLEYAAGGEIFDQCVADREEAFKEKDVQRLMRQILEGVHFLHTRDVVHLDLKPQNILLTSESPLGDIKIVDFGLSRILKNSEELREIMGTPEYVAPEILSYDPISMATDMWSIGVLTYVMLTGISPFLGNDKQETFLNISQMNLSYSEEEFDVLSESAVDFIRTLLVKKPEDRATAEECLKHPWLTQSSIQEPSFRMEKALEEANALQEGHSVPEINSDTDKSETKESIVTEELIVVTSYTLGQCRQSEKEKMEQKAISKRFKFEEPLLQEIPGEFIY

[10] = molecular target: Insulin-like growth factor 1 receptor (Homo sapiens) (UniProt P08069); conditions: Compound concentration 1000.0 nM
[11] = tested on: Proto-oncogene tyrosine-protein kinase receptor Ret (Homo sapiens), P07949 [M918T]; conditions: Compound concentration 1000.0 nM
Proto-oncogene tyrosine-protein kinase receptor Ret (Homo sapiens), P07949 [M918T], sequence (P07949 whole entry M918T): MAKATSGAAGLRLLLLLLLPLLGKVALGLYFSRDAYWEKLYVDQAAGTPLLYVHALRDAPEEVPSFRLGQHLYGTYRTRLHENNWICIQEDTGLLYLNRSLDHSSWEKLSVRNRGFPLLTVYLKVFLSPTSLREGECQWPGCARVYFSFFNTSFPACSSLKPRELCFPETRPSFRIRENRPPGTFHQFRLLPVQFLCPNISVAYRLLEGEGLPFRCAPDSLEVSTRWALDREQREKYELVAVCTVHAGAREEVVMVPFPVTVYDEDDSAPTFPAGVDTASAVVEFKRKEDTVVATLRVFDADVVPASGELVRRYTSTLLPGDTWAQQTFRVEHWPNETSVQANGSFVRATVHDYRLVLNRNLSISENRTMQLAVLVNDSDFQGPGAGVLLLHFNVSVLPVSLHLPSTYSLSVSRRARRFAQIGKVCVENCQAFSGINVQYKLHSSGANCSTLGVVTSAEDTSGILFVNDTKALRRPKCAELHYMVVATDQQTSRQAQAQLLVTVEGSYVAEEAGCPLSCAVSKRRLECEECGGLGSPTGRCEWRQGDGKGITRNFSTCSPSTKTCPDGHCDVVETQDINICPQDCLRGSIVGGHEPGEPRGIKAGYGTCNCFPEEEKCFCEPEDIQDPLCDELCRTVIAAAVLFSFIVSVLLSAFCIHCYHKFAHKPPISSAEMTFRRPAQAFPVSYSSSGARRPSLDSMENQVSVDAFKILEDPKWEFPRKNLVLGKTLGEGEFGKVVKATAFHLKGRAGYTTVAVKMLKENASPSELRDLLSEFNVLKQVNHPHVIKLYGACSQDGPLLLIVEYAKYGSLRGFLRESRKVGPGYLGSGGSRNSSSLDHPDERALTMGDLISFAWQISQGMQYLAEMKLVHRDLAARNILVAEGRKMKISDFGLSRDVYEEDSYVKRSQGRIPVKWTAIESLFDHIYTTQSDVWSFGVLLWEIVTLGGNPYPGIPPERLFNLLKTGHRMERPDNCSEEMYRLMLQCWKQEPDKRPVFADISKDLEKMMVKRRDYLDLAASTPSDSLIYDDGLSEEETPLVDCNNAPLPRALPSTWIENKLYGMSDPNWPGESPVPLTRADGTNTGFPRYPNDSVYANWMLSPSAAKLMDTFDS

[12] = molecular target: Cyclin-dependent kinase 4 (Homo sapiens) (UniProt P11802); conditions: Compound concentration 1000.0 nM
[13] = molecular target: Cyclin-dependent kinase 2 homolog (Plasmodium falciparum (isolate 3D7)) (UniProt P61075); conditions: Compound concentration 1000.0 nM
[14] = molecular target: cAMP-dependent protein kinase catalytic subunit beta (Homo sapiens) (UniProt P22694); conditions: Compound concentration 1000.0 nM
[15] = molecular target: Receptor-interacting serine/threonine-protein kinase 1 (Homo sapiens) (UniProt Q13546); conditions: Compound concentration 1000.0 nM
[16] = molecular target: 5-hydroxytryptamine receptor 2A (Homo sapiens, UniProt P28223); conditions: Compound concentration 10.0 uM
5-hydroxytryptamine receptor 2A, sequence (P28223 whole entry): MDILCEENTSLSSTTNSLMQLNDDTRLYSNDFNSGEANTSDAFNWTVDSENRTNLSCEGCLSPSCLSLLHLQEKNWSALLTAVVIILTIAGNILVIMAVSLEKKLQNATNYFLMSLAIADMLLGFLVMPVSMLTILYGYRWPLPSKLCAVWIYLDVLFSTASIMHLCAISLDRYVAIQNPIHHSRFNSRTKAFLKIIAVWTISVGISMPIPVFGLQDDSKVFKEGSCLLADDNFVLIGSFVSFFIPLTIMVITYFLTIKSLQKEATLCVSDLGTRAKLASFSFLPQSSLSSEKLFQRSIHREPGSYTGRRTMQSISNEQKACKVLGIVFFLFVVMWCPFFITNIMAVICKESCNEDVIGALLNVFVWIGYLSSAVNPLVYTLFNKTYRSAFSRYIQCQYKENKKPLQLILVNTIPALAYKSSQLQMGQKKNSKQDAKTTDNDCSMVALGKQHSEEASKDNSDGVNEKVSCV

[17] = molecular target: Serine/threonine-protein kinase LATS1 (Homo sapiens) (UniProt O95835); conditions: Compound concentration 1000.0 nM
[18] = molecular target: Serine/threonine-protein kinase SIK1 (Homo sapiens) (UniProt P57059); conditions: Compound concentration 1000.0 nM
[19] = molecular target: Misshapen-like kinase 1 (Homo sapiens) (UniProt Q8N4C8); conditions: Compound concentration 1000.0 nM
[20] = molecular target: Mitogen-activated protein kinase kinase kinase 12 (Homo sapiens) (UniProt Q12852); conditions: Compound concentration 1000.0 nM
[21] = tested on: Mast/stem cell growth factor receptor Kit (Homo sapiens), P10721 [V559D]; conditions: Compound concentration 1000.0 nM
[22] = molecular target: Tyrosine-protein kinase receptor UFO (Homo sapiens) (UniProt P30530); conditions: Compound concentration 1000.0 nM
[23] = molecular target: Dual specificity mitogen-activated protein kinase kinase 6 (Homo sapiens) (UniProt P52564); conditions: Compound concentration 1000.0 nM
Dual specificity mitogen-activated protein kinase kinase 6 (Homo sapiens), sequence (P52564 whole entry): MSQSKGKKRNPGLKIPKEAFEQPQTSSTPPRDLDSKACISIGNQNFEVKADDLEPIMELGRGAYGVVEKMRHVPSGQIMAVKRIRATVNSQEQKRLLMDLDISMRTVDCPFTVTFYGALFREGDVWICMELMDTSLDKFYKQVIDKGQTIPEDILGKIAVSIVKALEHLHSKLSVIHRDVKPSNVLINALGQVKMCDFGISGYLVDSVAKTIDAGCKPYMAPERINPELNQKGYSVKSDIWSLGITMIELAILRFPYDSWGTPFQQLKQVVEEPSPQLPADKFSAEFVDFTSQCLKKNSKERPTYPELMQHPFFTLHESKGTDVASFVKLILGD

[24] = molecular target: Serine/threonine-protein kinase Nek9 (Homo sapiens) (UniProt Q8TD19); conditions: Compound concentration 1000.0 nM
[25] = molecular target: MAP kinase-activated protein kinase 5 (Homo sapiens) (UniProt Q8IW41); conditions: Compound concentration 1000.0 nM
[26] = molecular target: Phosphatidylinositol 4,5-bisphosphate 3-kinase catalytic subunit beta isoform (Homo sapiens) (UniProt P42338); conditions: Compound concentration 1000.0 nM
[27] = molecular target: Serine/threonine-protein kinase Nek2 (Homo sapiens) (UniProt P51955); conditions: Compound concentration 1000.0 nM
[28] = molecular target: Serine/threonine-protein kinase 36 (Homo sapiens) (UniProt Q9NRP7); conditions: Compound concentration 1000.0 nM
[29] = tested on: Mast/stem cell growth factor receptor Kit (Homo sapiens), P10721 [V559D,T670I]; conditions: Compound concentration 1000.0 nM
[30] = molecular target: Calcium/calmodulin-dependent protein kinase type II subunit gamma (Homo sapiens) (UniProt Q13555); conditions: Compound concentration 1000.0 nM
[31] = molecular target: Alpha-1B adrenergic receptor (Homo sapiens) (UniProt P35368); conditions: Compound concentration 10.0 uM
[32] = tested on: Receptor-type tyrosine-protein kinase FLT3 (Homo sapiens), P36888 [D835H]; conditions: Compound concentration 1000.0 nM
[33] = tested on: Tyrosine-protein kinase ABL1 (Homo sapiens), P00519 [T315I]; conditions: Compound concentration 1000.0 nM
[34] = molecular target: Sigma intracellular receptor 2 (Homo sapiens, UniProt Q5BJF2); conditions: Compound concentration 10.0 uM
[35] = molecular target: Serine/threonine-protein kinase Nek10 (Homo sapiens) (UniProt Q6ZWH5); conditions: Compound concentration 1000.0 nM
Serine/threonine-protein kinase Nek10 (Homo sapiens), sequence (Q6ZWH5 whole entry): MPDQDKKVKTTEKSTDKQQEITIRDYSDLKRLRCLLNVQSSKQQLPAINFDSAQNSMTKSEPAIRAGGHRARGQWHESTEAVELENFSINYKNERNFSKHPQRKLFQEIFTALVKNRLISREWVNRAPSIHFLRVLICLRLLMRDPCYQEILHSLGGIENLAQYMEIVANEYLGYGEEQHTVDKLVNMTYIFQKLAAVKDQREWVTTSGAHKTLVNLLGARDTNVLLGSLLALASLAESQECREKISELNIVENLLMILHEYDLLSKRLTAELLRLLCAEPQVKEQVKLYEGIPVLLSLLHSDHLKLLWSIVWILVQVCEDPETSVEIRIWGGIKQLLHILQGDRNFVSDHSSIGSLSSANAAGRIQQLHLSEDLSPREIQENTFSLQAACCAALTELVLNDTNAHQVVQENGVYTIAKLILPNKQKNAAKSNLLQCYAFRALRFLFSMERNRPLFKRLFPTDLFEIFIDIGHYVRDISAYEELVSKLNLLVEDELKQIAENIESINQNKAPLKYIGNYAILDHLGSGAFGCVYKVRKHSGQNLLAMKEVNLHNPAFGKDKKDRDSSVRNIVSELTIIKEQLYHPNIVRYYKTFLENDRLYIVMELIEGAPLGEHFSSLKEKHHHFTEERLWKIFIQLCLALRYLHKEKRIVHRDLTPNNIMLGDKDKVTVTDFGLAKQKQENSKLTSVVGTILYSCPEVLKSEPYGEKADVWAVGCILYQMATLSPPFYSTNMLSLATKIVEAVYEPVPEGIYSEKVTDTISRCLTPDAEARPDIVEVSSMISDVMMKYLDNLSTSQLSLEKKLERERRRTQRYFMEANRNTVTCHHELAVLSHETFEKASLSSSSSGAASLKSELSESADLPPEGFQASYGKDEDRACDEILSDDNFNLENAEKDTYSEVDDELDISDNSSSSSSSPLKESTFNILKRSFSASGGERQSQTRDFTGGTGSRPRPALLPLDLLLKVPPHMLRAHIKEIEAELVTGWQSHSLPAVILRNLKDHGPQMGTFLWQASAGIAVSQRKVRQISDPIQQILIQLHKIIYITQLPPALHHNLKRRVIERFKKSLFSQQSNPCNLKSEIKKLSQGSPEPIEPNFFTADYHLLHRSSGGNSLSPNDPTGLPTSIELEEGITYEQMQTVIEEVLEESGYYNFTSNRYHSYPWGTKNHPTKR

[36] = tested on: Hepatocyte growth factor receptor (Homo sapiens), P08581 [M1250T]; conditions: Compound concentration 1000.0 nM
[37] = molecular target: Serine/threonine-protein kinase Nek1 (Homo sapiens) (UniProt Q96PY6); conditions: Compound concentration 1000.0 nM
[38] = molecular target: Serine/threonine-protein kinase D3 (Homo sapiens) (UniProt O94806); conditions: Compound concentration 1000.0 nM
[39] = molecular target: Ribosomal protein S6 kinase alpha-1 (Homo sapiens) (UniProt Q15418); conditions: Compound concentration 1000.0 nM
[40] = molecular target: Death-associated protein kinase 2 (Homo sapiens) (UniProt Q9UIK4); conditions: Compound concentration 1000.0 nM
[41] = molecular target: Macrophage-stimulating protein receptor (Homo sapiens) (UniProt Q04912); conditions: Compound concentration 1000.0 nM
[42] = molecular target: Rhodopsin kinase GRK7 (Homo sapiens) (UniProt Q8WTQ7); conditions: Compound concentration 1000.0 nM
Rhodopsin kinase GRK7 (Homo sapiens), sequence (Q8WTQ7 whole entry): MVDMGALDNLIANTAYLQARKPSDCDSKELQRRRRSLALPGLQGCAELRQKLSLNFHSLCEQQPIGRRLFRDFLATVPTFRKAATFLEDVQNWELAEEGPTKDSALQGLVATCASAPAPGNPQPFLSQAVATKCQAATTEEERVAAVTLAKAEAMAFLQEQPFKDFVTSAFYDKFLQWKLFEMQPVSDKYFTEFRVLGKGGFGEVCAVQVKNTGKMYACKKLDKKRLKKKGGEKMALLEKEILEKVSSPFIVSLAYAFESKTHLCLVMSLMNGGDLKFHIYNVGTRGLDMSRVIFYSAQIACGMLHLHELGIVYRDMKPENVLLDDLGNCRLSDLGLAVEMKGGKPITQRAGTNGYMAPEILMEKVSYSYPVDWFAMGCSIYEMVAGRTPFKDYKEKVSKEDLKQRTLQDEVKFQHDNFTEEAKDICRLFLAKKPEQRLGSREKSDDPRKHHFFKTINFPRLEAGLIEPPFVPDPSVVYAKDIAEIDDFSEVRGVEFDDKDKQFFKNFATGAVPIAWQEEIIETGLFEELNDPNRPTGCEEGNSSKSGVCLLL

[43] = molecular target: Serine/threonine-protein kinase 26 (Homo sapiens) (UniProt Q9P289); conditions: Compound concentration 1000.0 nM
[44] = molecular target: Serine/threonine-protein kinase 16 (Homo sapiens) (UniProt O75716); conditions: Compound concentration 1000.0 nM
[45] = molecular target: Ribosomal protein S6 kinase alpha-3 (Homo sapiens) (UniProt P51812); conditions: Compound concentration 1000.0 nM

CC(=O)c1c(NS(C)(=O)=O)c2cc(-c3ccc(Cl)cc3)c(-c3ccc(Cl)cc3Cl)nc2n(C)c1=O [MRL-CB1-NC]
residual activity [1]: 100%
residual activity [2]: 93%
residual activity [3]: 83%
residual activity [4]: 100%
residual activity [5]: 100%
residual activity [6]: 100%
residual activity [7]: 100%
residual activity [8]: 93%
residual activity [9]: 88%
residual activity [10]: 100%
residual activity [11]: 100%
residual activity [12]: 94%
residual activity [13]: 100%
residual activity [14]: 92%
residual activity [15]: 97%
inhibition [16]: 78.8%
residual activity [17]: 81%
residual activity [18]: 100%
residual activity [19]: 100%
residual activity [20]: 100%
residual activity [21]: 100%
residual activity [22]: 100%
residual activity [23]: 100%
residual activity [24]: 100%
residual activity [25]: 89%
residual activity [26]: 100%
residual activity [27]: 100%
residual activity [28]: 100%
residual activity [29]: 100%
residual activity [30]: 100%
inhibition [31]: 47.2%
residual activity [32]: 96%
residual activity [33]: 86%
inhibition [34]: 17.6%
residual activity [35]: 99%
residual activity [36]: 90%
residual activity [37]: 100%
residual activity [38]: 100%
residual activity [39]: 93%
residual activity [40]: 100%
residual activity [41]: 88%
residual activity [42]: 83%
residual activity [43]: 84%
residual activity [44]: 100%
residual activity [45]: 75%

CC(=O)Nc1c(C(C)=O)c(=O)n(C)c2nc(-c3ccc(Cl)cc3Cl)c(-c3ccc(Cl)cc3)cc12 [NAPHTHYRIDINONE]
residual activity [1]: 100%
residual activity [2]: 100%
residual activity [3]: 100%
residual activity [4]: 100%
residual activity [5]: 100%
residual activity [6]: 100%
residual activity [7]: 100%
residual activity [8]: 100%
residual activity [9]: 100%
residual activity [10]: 100%
residual activity [11]: 100%
residual activity [12]: 100%
residual activity [13]: 100%
residual activity [14]: 100%
residual activity [15]: 100%
inhibition [16]: 21.8%
residual activity [17]: 98%
residual activity [18]: 100%
residual activity [19]: 100%
residual activity [20]: 100%
residual activity [21]: 100%
residual activity [22]: 100%
residual activity [23]: 100%
residual activity [24]: 100%
residual activity [25]: 100%
residual activity [26]: 100%
residual activity [27]: 100%
residual activity [28]: 92%
residual activity [29]: 100%
residual activity [30]: 100%
inhibition [31]: 17.1%
residual activity [32]: 100%
residual activity [33]: 89%
inhibition [34]: 54.6%
residual activity [35]: 100%
residual activity [36]: 100%
residual activity [37]: 100%
residual activity [38]: 100%
residual activity [39]: 100%
residual activity [40]: 100%
residual activity [41]: 100%
residual activity [42]: 100%
residual activity [43]: 87%
residual activity [44]: 100%
residual activity [45]: 90%
